From ChEMBL document CHEMBL5321234, “Discovery of Thieno[3,2-d]pyrimidine derivatives as potent and selective inhibitors of ataxia telangiectasia mutated and Rad3 related (ATR) kinase” (Eur J Med Chem, 2023)

Experiments:
[1] = target: Serine/threonine-protein kinase ATR (Homo sapiens, UniProt Q13535); experiment: Inhibition of ATR (unknown origin)
LoVo [2] = experiment: Antiproliferative activity against human LoVo cells incubated for 72 hrs by CCK-8 assay; format: functional, cell-based
LoVo [3] = experiment: Antitumor activity against human LoVo cells xenografted in BALB/c mouse assessed as tumor growth inhibition at 50 mg/kg, po bid 3 days on/4 days off administered for 21 consecutive days relative to control; format: functional; settings: 504 h, time 21 day, read-out: TGI
[4] = AUC (0 to t) in ICR mouse at 1 mg/kg, iv measured upto 24 hrs by LC-MS/MS analysis; format: ADME, organism-based; parameters: dose 1 mg/kg, time < 24 hrs, route iv; settings: in vivo
[5] = MRT (0 to infinity) in ICR mouse at 10 mg/kg, po measured upto 24 hrs by LC-MS/MS analysis; format: ADME, organism-based; settings: in vivo
[6] = AUC (0 to infinity) in ICR mouse at 1 mg/kg, iv measured upto 24 hrs by LC-MS/MS analysis; format: ADME, organism-based; parameters: dose 1 mg/kg, time < 24 hrs, route iv; settings: in vivo
[7] = AUC (0 to infinity) in ICR mouse at 10 mg/kg, po measured upto 24 hrs by LC-MS/MS analysis; format: ADME, organism-based; parameters: dose 10 mg/kg, time < 24 hrs, route po; settings: in vivo
[8] = Cmax in ICR mouse at 10 mg/kg, po measured upto 24 hrs by LC-MS/MS analysis; format: ADME, organism-based; parameters: time < 24 hrs, dose 10 mg/kg, route po; settings: in vivo
[9] = Clearance in ICR mouse at 1 mg/kg, iv measured upto 24 hrs by LC-MS/MS analysis; format: ADME, organism-based; settings: ICR, in vivo
[10] = Volume of distribution at steady state in ICR mouse at 1 mg/kg, iv measured upto 24 hrs by LC-MS/MS analysis; format: ADME, organism-based; settings: ICR, in vivo, read-out: Vdss
[11] = MRT (0 to t) in ICR mouse at 10 mg/kg, po measured upto 24 hrs by LC-MS/MS analysis; format: ADME, organism-based; settings: in vivo
[12] = Cmax in ICR mouse at 1 mg/kg, iv measured upto 24 hrs by LC-MS/MS analysis; format: ADME, organism-based; parameters: time < 24 hrs, dose 1 mg/kg, route iv; settings: in vivo
[13] = AUC (0 to t) in ICR mouse at 10 mg/kg, po measured upto 24 hrs by LC-MS/MS analysis; format: ADME, organism-based; parameters: dose 10 mg/kg, time < 24 hrs, route po; settings: in vivo
[14] = Half life in ICR mouse at 1 mg/kg, iv measured upto 24 hrs by LC-MS/MS analysis; format: ADME, organism-based; settings: in vivo
[15] = Oral bioavailability in ICR mouse at 10 mg/kg measured upto 24 hrs by LC-MS/MS analysis; format: ADME, organism-based; settings: in vivo
[16] = MRT (0 to t) in ICR mouse at 1 mg/kg, iv measured upto 24 hrs by LC-MS/MS analysis; format: ADME, organism-based; settings: in vivo
[17] = MRT (0 to infinity) in ICR mouse at 1 mg/kg, iv measured upto 24 hrs by LC-MS/MS analysis; format: ADME, organism-based; settings: ICR, in vivo
[18] = Initial plasma concentration in ICR mouse at 1 mg/kg, iv measured upto 24 hrs by LC-MS/MS analysis; format: ADME, organism-based
[19] = Tmax in ICR mouse at 10 mg/kg, po measured upto 24 hrs by LC-MS/MS analysis; format: ADME, organism-based; settings: in vivo
[20] = Half life in ICR mouse at 10 mg/kg, po measured upto 24 hrs by LC-MS/MS analysis; format: ADME, organism-based; settings: in vivo
[21] = Tmax in ICR mouse at 1 mg/kg, iv measured upto 24 hrs by LC-MS/MS analysis; format: ADME, organism-based; settings: in vivo
HT-29 = experiment: Antiproliferative activity against human HT-29 cells incubated for 72 hrs by CCK-8 assay; format: functional, cell-based; settings: HT-29, 72 h

Chain of Serine/threonine-protein kinase ATR (Q13535 whole entry): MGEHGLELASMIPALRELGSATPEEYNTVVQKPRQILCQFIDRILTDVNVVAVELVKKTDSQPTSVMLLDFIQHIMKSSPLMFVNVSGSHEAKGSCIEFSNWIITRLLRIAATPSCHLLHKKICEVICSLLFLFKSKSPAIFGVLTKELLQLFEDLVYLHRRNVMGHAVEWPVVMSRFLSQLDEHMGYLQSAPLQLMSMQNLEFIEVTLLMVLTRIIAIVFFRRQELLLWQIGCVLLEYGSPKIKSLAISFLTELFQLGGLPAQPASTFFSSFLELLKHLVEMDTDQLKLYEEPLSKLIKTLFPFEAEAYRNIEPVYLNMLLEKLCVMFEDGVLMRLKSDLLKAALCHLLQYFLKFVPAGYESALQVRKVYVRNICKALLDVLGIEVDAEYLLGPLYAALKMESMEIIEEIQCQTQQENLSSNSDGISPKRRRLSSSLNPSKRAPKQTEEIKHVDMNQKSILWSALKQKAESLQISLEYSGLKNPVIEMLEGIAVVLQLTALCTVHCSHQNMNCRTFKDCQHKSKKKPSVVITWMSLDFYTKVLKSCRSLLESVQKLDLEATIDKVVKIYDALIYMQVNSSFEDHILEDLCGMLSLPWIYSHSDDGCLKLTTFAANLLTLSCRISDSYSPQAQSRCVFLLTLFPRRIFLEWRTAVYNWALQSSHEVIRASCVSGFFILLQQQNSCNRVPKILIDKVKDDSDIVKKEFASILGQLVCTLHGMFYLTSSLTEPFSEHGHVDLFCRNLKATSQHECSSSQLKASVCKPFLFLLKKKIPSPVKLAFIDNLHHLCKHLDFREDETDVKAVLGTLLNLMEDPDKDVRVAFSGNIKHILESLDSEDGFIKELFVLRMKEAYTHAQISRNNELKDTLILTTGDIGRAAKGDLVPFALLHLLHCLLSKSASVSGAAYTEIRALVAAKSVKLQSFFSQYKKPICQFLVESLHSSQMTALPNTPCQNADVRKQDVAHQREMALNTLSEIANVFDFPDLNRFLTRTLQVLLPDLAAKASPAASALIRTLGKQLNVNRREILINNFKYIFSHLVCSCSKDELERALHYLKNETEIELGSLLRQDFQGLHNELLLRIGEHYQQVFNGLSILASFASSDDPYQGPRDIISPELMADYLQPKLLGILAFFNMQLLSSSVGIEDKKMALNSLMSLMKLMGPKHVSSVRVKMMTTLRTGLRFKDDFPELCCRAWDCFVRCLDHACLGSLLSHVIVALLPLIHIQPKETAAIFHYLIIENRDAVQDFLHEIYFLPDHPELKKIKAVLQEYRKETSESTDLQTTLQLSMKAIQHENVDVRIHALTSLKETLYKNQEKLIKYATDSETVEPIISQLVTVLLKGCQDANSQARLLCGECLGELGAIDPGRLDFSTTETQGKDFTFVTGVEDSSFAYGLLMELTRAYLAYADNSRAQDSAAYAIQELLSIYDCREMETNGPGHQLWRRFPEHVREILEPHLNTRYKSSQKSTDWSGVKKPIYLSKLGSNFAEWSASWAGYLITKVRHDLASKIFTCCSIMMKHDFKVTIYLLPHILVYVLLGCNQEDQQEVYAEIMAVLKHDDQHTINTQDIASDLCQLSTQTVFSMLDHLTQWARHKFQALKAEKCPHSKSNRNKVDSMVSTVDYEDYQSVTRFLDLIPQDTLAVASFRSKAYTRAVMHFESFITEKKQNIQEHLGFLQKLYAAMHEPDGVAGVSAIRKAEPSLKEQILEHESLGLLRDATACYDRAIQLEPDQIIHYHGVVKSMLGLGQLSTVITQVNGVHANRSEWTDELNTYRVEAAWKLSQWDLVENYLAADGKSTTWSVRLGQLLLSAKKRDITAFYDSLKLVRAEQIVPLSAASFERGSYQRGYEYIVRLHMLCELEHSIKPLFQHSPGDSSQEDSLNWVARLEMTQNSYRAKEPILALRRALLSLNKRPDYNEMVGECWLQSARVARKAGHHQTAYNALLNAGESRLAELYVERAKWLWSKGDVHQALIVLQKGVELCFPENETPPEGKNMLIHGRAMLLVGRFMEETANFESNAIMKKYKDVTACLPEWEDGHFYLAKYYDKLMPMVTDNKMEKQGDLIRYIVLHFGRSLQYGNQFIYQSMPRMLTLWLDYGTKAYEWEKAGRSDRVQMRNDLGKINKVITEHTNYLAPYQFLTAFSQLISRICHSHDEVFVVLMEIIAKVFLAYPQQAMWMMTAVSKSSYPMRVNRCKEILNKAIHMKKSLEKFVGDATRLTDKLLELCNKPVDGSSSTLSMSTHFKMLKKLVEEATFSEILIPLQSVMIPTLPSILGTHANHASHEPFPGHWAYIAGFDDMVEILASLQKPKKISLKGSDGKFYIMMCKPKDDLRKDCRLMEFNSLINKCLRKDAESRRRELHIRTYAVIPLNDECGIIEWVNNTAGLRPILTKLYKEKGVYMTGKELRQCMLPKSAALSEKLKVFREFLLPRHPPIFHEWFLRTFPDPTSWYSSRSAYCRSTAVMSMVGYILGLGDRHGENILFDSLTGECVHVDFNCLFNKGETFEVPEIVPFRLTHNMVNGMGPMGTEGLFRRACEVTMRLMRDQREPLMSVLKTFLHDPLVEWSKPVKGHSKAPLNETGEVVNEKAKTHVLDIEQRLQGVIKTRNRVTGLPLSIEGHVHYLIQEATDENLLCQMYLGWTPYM

SMILES | IC50 [1] | IC50 (LoVo [2]) | also measured
C[C@@H]1COCCN1c1nc(-c2ccnc3[nH]ccc23)nc2ccsc12 | 17.8 nM | 3340 nM | 
C[C@@H]1COCCN1c1cc(-c2ccnn2C)c2ccnc(-c3ccn[nH]3)c2n1 [ELIMUSERTIB] |  | 41 nM | inhibition in vivo at 50 mg/kg (LoVo [3]): 65%
C[C@@H]1COCCN1c1nc(-n2c(N)nc3c(F)cccc32)nc2c(S(C)(=O)=O)csc12 | 2 nM | 381 nM | 
CC(O)c1csc2c(N3CCOC[C@H]3C)nc(-c3ccnc4[nH]ccc34)nc12 (stereo partly specified) | 19.2 nM | 694 nM | 
CCS(=O)(=O)c1csc2c(N3CCOC[C@H]3C)nc(-n3c(NC)nc4ccccc43)nc12 | 4.5 nM | 89 nM | 
C[C@@H]1COCCN1c1nc(-c2cccc3[nH]ccc23)nc2c(S(C)(=O)=O)csc12 | 3.1 nM | 266 nM | 
C[C@@H]1COCCN1c1nc(-c2cccc3c2CCN3)nc2c(S(C)(=O)=O)csc12 | 59.2 nM | 1890 nM | 
C[C@@H]1COCCN1c1nc(-n2cnc3ccccc32)nc2c(S(C)(=O)=O)csc12 | 2.3 nM | 648 nM | 
CNc1nc2ccccc2n1-c1nc(N2CCOC[C@H]2C)c2scc(SC)c2n1 | 24.2 nM | 1500 nM | 
CNc1nc2ccccc2n1-c1nc(N2CCOC[C@H]2C)c2scc(S(=O)(=O)C3CC3)c2n1 | 2.8 nM | 107 nM | 
C[C@@H]1COCCN1c1nc(-c2cccc3[nH]ncc23)nc2c(S(C)(=O)=O)csc12 | 9.6 nM | 391 nM | 
C[C@@H]1COCCN1c1nc(-n2c(N)nc3ccccc32)nc2c(S(C)(=O)=O)csc12 | 1 nM | 64 nM | AUC(0-t) at 24 h [4]: 221 ng·h/mL; MRT inf [5]: 1.09 h; AUC(0-inf) [6]: 226 ng·h/mL; AUC(0-inf) [7]: 741 ng·h/mL; Cmax [8]: 994 ng/mL; clearance [9]: 74.9 mL/min/kg; Vd [10]: 0.827 L/kg; MRT last at 24 h [11]: 1.03 h; Cmax [12]: 698 ng/mL; AUC(0-t) at 24 h [13]: 735 ng·h/mL; half-life [14]: 7.8 min; bioavailability [15]: 32.8%; MRT last at 24 h [16]: 9.6 min; MRT inf [17]: 10.8 min; C0 at 24 h [18]: 1080 ng/mL; Tmax [19]: 15 min; half-life [20]: 74.4 min; Tmax [21]: 4.8 min
C[C@@H]1COCCN1c1nc(-c2cc(C(F)(F)F)cc3[nH]ccc23)nc2c(S(C)(=O)=O)csc12 | 2.9 nM | 527 nM | 
CNc1nc2ccccc2n1-c1nc(N2CCOC[C@H]2C)c2scc(S(=O)(=O)C(C)C)c2n1 | 5.7 nM | 224 nM | 
C[C@@H]1COCCN1c1nc(-n2c(N)nc3ccc(F)cc32)nc2c(S(C)(=O)=O)csc12 | 3.7 nM | 360 nM | 
C[C@@H]1COCCN1c1nc(-n2c(C(F)F)nc3ccccc32)nc2c(S(C)(=O)=O)csc12 | 2.8 nM | 177 nM | 
C[C@@H]1COCCN1c1nc(-c2cc(F)cc3[nH]ccc23)nc2c(S(C)(=O)=O)csc12 | 3.1 nM | 259 nM | 
CNc1nc2ccccc2n1-c1nc(N2CCOC[C@H]2C)c2scc(S(C)(=N)=O)c2n1 (stereo partly specified) | 5.5 nM | 117 nM | 
C[C@@H]1COCCN1c1nc(-c2c(F)ncc3[nH]ccc23)nc2c(S(C)(=O)=O)csc12 | 4.7 nM | 151 nM | 
CC(C)n1c(=O)n(C)c2cnc3cc(F)c(-c4ccc(OCCCN5CCCCC5)nc4)cc3c21 [AZD-1390] |  |  | IC50 (HT-29): > 10 µM
C=C(C)c1csc2c(N3CCOC[C@H]3C)nc(-c3ccnc4[nH]ccc34)nc12 | 108 nM |  | 
C[C@@H]1COCCN1c1nc(-c2cc(Cl)cc3[nH]ccc23)nc2c(S(C)(=O)=O)csc12 | 3.6 nM | 119 nM | 

The remaining molecules from weak to strong by IC50 [1], led by results:

IC50 [1] | IC50 (LoVo [2]) | SMILES | also measured
233 nM |  | C[C@@H]1COCCN1c1nc(-n2c(N(C)C)nc3ccccc32)nc2c(S(C)(=O)=O)csc12 | 
159 nM |  | C[C@@H]1COCCN1c1nc(-c2cccc3c2CC(=O)N3)nc2c(S(C)(=O)=O)csc12 | 
123 nM | > 10000 nM | C[C@@H]1COCCN1c1nc(-n2c(=O)[nH]c3ccccc32)nc2c(S(C)(=O)=O)csc12 | 
113 nM |  | CSc1nc2ccccc2n1-c1nc(N2CCOC[C@H]2C)c2scc(S(C)(=O)=O)c2n1 | 
52.6 nM | 2510 nM | C[C@@H]1COCCN1c1nc(-c2ccnc3[nH]ccc23)nc2c(C#N)csc12 | 
47 nM |  | C[C@@H]1COCCN1c1nc(-n2nnc3ccccc32)nc2c(S(C)(=O)=O)csc12 | 
35.3 nM | 931 nM | CC(=O)c1csc2c(N3CCOC[C@H]3C)nc(-c3ccnc4[nH]ccc34)nc12 | 
31.5 nM | 370 nM | C[C@@H]1COCCN1c1nc(-c2ccnc3[nH]ccc23)nc2c(C(N)=O)csc12 | 
16.8 nM | 626 nM | CCCS(=O)(=O)c1csc2c(N3CCOC[C@H]3C)nc(-n3c(NC)nc4ccccc43)nc12 | 
13.2 nM | 125 nM | CC(=O)Nc1nc2ccccc2n1-c1nc(N2CCOC[C@H]2C)c2scc(S(C)(=O)=O)c2n1 | 
8.5 nM | 264 nM | CNc1nc2ccccc2n1-c1nc(N2CCOC[C@H]2C)c2scc([S+](C)[O-])c2n1 (stereo partly specified) | 
7.9 nM | 221 nM | C[C@@H]1COCCN1c1nc(-c2ccnc3[nH]ccc23)nc2c(C(C)(C)O)csc12 | 
6.2 nM | 371 nM | CCP(=O)(CC)c1csc2c(N3CCOC[C@H]3C)nc(-n3c(NC)nc4ccccc43)nc12 | 
6.2 nM | 113 nM | CNc1nc2ccccc2n1-c1nc(N2CCOC[C@H]2C)c2scc(P(C)(C)=O)c2n1 | 
5.8 nM | 111 nM | C[C@@H]1COCCN1c1nc(-c2ccnc3[nH]ccc23)nc2c(S(C)(=O)=O)csc12 | 
5.4 nM | 398 nM | C[C@@H]1COCCN1c1nc(-c2ccnc3[nH]ccc23)nc2c(S(C)(=N)=O)csc12 (stereo partly specified) | 
5 nM | 437 nM | C[C@@H]1COCCN1c1nc(-c2c[nH]c3ccccc23)nc2c(S(C)(=O)=O)csc12 | 
3.8 nM | 657 nM | CCc1nc2ccccc2n1-c1nc(N2CCOC[C@H]2C)c2scc(S(C)(=O)=O)c2n1 | 
3.5 nM | 635 nM | Cc1nc2ccccc2n1-c1nc(N2CCOC[C@H]2C)c2scc(S(C)(=O)=O)c2n1 | 
1.2 nM | 73 nM | C[C@@H]1COCCN1c1nc(-n2c(N)nc3cc(F)ccc32)nc2c(S(C)(=O)=O)csc12 | 
